Assays:
[1] = target: human S1P1 receptors (Homo sapiens (Human), UniProt P21453); assay: Human S1P1 Receptor Calcium FLIPR Antagonist Assay (HeLa Gα16 S1P1); type: cell-based; conditions: relative antagonism vs probing agonist GNF-AC-1 at EC80, HeLa-S1P1/Gα16 cells
Text: Human S1P1 Receptor Calcium FLIPR Antagonist Assay
The assay measures intracellular changes of Ca^2+ mediated by the synthetic probing agonist 3-{[2-(2-Trifluoromethyl-biphenyl-4-yl)-benzo[b]thiophen-5-ylmethyl]-amino}-propionic acid (GNF-AC-1) in the HeLa-S1P1/Gα16 cell clone 1: HeLa (human cervix carcinoma, ATCC CCL2) cells stably expressing N-terminally myc-tagged human S1P1 receptors (GenBank™ accession No. NM_001400; UNIPROT P21453) and promiscuous Gα16 protein (GenBank™ accession number M63904, Swissprot P30679) are cultured at 37° C., 5% CO2, and 95% relative humidity. The cells are plated in 384 well black plates (10′000 cells per well). After 24 hours the cells are loaded with Fluo-4-AM (1.6 μM in HBSS and 2.5 mM probenicid) for 1 hour at 37° C. After washing, the cells are transferred to the FLIPR. The test compounds are added at different concentrations (≦100 μM) in HBSS in the presence of 0.1% BSA and changes in fluorescence are recorded (indication of agonism). The probing agonist is added 20-30 minutes afterwards to the wells at a concentration giving 80% of the maximal activity (EC80). After each addition, time points are collected as follows: 20 time points (2 seconds) before the addition of the agonist (Fmin) and 60 time points (1 or 2 seconds) after the addition of the probing agonist. This allows the determination of the maximal fluorescence (Fmax). The ratio (Fmax−Fmin)/Fmin is plotted against the log of the concentration of the test compounds and the IC50 (relative antagonism) is calculated using the XLfit-4 software. […] A concentration-response curve of the probing agonist is determined on each plate in parallel.

[2] = system: peripheral lymphocyte counts; assay: Measurement of circulating lymphocytes after oral administration (mice); type: in vivo; conditions: Mus musculus, C57BL/6NCrl mice, 30 mg/kg p.o., 24 hours, vs mean counts of untreated animals, mean ± STDEV, read-out: Residual Lymphocyte Counts 24 hours after p.o. dosing
Method: (§1) The compounds of the invention, e.g. compounds of formula (I) typically induce the depletion of blood lymphocyte as may be determined in the assay described below. Moreover, compounds of the invention, e.g. compounds of formula (I) are typically efficacious in the said assay also when administered via the per oral route of administration.
(§2) Measurement of Circulating Lymphocytes:
(§3) The test compounds (or salts thereof) are dissolved in a vehicle such as water, saline, PEG (polyethylene glycol) 200, or PBS (phosphate buffered saline). Adult mice (C57BU6NCrl strain, female, 18-20 g) or rats (Lewis strain, male, 6-12 weeks old) are administered up to 60 mg/kg of the test compounds in 10 ml/kg (C57BU6NCrl mice) or 2 ml/kg (Lewis rats) vehicle via per oral application. The vehicle or a reference salt and FTY720 (0.3 mg/kg) are used as negative and positive controls, respectively. Blood is collected from the sublingual vein at single time points, e.g. 14 or 24 hours after the test compound administration, under short isoflurane anesthesia. Two to three animals are used in each group. Whole blood samples are subjected to hematology analysis. Peripheral lymphocyte counts are determined using an automated analyzer. The Haemathology System uses a combination of light scatter, cytochemical staining and nuclear density on two independent channels to measure the total and differential white cell counts. The reduction of lymphocytes provoked by each test compound is calculated by comparing the lymphocyte counts measured after each treatment to the mean lymphocyte counts measured in five to eight untreated mice or rats, respectively. The data are presented as mean±STDEV.

[3] = system: peripheral lymphocyte counts; assay: Measurement of circulating lymphocytes after oral administration (rats); type: in vivo; conditions: Lewis rats, 30 mg/kg p.o., vs mean counts of untreated animals, mean ± STDEV
Method: as §1, §2, §3

Chain of human S1P1 receptors (P21453 whole entry): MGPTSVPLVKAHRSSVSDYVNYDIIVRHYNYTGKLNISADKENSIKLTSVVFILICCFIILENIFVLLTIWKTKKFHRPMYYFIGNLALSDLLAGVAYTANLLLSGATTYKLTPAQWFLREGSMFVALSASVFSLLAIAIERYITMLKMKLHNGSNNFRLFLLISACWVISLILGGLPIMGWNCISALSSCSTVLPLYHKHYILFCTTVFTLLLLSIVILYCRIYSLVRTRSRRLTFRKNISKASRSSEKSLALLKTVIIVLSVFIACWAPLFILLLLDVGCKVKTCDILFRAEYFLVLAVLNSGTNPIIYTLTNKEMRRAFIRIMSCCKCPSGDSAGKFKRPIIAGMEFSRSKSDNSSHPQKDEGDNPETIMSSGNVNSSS

IC50 [1] | SMILES | response vs control in vivo at 30 mg/kg [2] | Residual Lymphocyte Counts 24 hours after p.o. dosing [3]
0.4 nM | Cc1cc([C@H](Nc2ccc(Cl)c(CN3CC[C@@H](C(=O)O)C3)c2)C(F)(F)F)ccc1Cl [Example 29, (R)-1-{2-Chloro-5-[(S)-1-(4-chloro-3-methyl-phenyl)-2,2,2-trifluoro-ethylamino]-benzyl}-pyrrolidine-3-carboxylic acid] | 35.6% | –
0.9 nM | Cc1cc([C@H](Nc2ccc(C)c(CN3CC[C@@H](C(=O)O)C3)c2C)C(F)(F)F)ccc1Cl [Example 30, (R)-1-{3-[(S)-1-(4-Chloro-3-methyl-phenyl)-2,2,2-trifluoro-ethylamino]-2,6-dimethyl-benzyl}-pyrrolidine-3-carboxylic acid] | 19.4% | 26.9 ± 13.0%
1 nM | Cc1cc([C@H](Nc2ccc(C)c(CN3CC(C(=O)O)C3)c2C)C(F)(F)F)ccc1Cl [Example 31, 1-{3-[(S)-1-(4-Chloro-3-methyl-phenyl)-2,2,2-trifluoro-ethylamino]-2,6-dimethyl-benzyl}-azetidine-3-carboxylic acid] | 23.4% | –
0.8 nM | CC[C@@H](Nc1ccc(C)c(CN2CC[C@@H](C(=O)O)C2)c1C)c1ccc(Cl)c(C)c1 [Example 32, (R)-1-{3-[(R)-1-(4-Chloro-3-methyl-phenyl)-propylamino]-2,6-dimethyl-benzyl}-pyrrolidine-3-carboxylic acid] | 17% | –
0.6 nM | CC[C@@H](Nc1ccc(C)c(CN2CC(C(=O)O)C2)c1C)c1ccc(Cl)c(C)c1 [Example 33, 1-{3-[(R)-1-(4-Chloro-3-methyl-phenyl)-propylamino]-2,6-dimethyl-benzyl}-azetidine-3-carboxylic acid] | 16.2% | –
0.8 nM | CCc1ccc(N[C@@H](c2ccc(Cl)c(C)c2)C(F)(F)F)cc1CN1CC[C@@H](C(=O)O)C1 [Example 34, (R)-1-{5-[(S)-1-(4-Chloro-3-methyl-phenyl)-2,2,2-trifluoro-ethylamino]-2-ethyl-benzyl}-pyrrolidine-3-carboxylic acid] | 24.2% | –
1.3 nM | CC[C@@H](Nc1ccc(C)c(CN2CC(C(=O)O)C2)c1)c1cc(C)c(Cl)c(C)c1 [Example 41, 1-{5-[(R)-1-(4-Chloro-3,5-dimethyl-phenyl)-propylamino]-2-methyl-benzyl}-azetidine-3-carboxylic acid] | 20.2% | –
1 nM | CC[C@@H](Nc1ccc(C)c(CN2CC[C@@H](C(=O)O)C2)c1)c1cc(C)c(Cl)c(C)c1 [Example 42, (R)-1-{5-[(R)-1-(4-Chloro-3,5-dimethyl-phenyl)-propylamino]-2-methyl-benzyl}-pyrrolidine-3-carboxylic acid] | 19.4% | 22.2% ± 6.7
0.8 nM | CC[C@@H](Nc1ccc(Cl)c(CN2CC[C@@H](C(=O)O)C2)c1)c1cc(C)c(Cl)c(C)c1 [Example 43, (R)-1-{2-Chloro-5-[(R)-1-(4-chloro-3,5-dimethyl-phenyl)-propylamino]-benzyl}-pyrrolidine-3-carboxylic acid] | 21.8% | –
0.5 nM | CC[C@@H](Nc1cc(CN2CC[C@@H](C(=O)O)C2)c(Cl)cn1)c1ccc(Cl)c(C)c1 [Example 55, (R)-1-{5-Chloro-2-[(R)-1-(4-chloro-3-methyl-phenyl)-propylamino]-pyridin-4-ylmethyl}-pyrrolidine-3-carboxylic acid] | 43.6% | –
1.6 nM | CC[C@@H](Nc1ccc(Cl)c(CN2CC(C(=O)O)C2)c1)c1cc(C)c(Cl)c(C)c1 [Example 61, 1-{2-Chloro-5-[(R)-1-(4-chloro-3,5-dimethyl-phenyl)-propylamino]-benzyl}-azetidine-3-carboxylic acid] | 16.2% | –
0.9 nM | CC[C@@H](Nc1ccc(Cl)c(CN2CC(C(=O)O)C2)c1)c1ccc(Cl)c(C)c1 [Example 62, 1-{2-Chloro-5-[(R)-1-(4-chloro-3-methyl-phenyl)-propylamino]-benzyl}-azetidine-3-carboxylic acid] | 31.5% | –
0.2 nM | Cc1cc([C@H](Nc2ccc(Cl)c(CN3CC(C)(C(=O)O)C3)c2)C(F)(F)F)ccc1Cl [Example 65, 1-{2-Chloro-5-[(S)-1-(4-chloro-3-methyl-phenyl)-2,2,2-trifluoro-ethylamino]-benzyl}-3-methyl-azetidine-3-carboxylic acid] | 22.6% | –
0.1 nM | Cc1cc([C@H](Nc2ccc(C)c(CN3CC(C(=O)O)C3)c2)C(F)(F)F)ccc1Cl [Example 70, 1-{5-[(S)-1-(4-Chloro-3-methyl-phenyl)-2,2,2-trifluoro-ethylamino]-2-methyl-benzyl}-azetidine-3-carboxylic acid] | 20.2% | –
0.4 nM | Cc1cc([C@H](Nc2cc(CN3CC[C@@H](C(=O)O)C3)c(Cl)cn2)C(F)(F)F)ccc1Cl [Example 84, (R)-1-{5-Chloro-2-[(S)-1-(4-chloro-3-methyl-phenyl)-2,2,2-trifluoro-ethylamino]-pyridin-4-ylmethyl}-pyrrolidine-3-carboxylic acid] | – | 16.8% ± 7.2
0.9 nM | Cc1cc([C@H](Nc2cc(CNCCC(=O)O)c(Cl)cn2)C(F)(F)F)ccc1Cl [Example 85, 3-({5-Chloro-2-[(S)-1-(4-chloro-3-methyl-phenyl)-2,2,2-trifluoro-ethylamino]-pyridin-4-ylmethyl}-amino)-propionic acid] | – | 11.6% ± 0.3
